{"source": "patent US8778966B2", "about": "“Quinolinone derivatives as PARP and tank inhibitors” (Janssen Pharmaceutica, NV, priority 2007, dated 2014)", "key": {"[1]": {"target": "T1, Human PARP-1 enzyme (Homo sapiens, UniProt P09874)", "T1 construct": "purchased Trevigen", "T1 sequence (P09874 whole entry)": "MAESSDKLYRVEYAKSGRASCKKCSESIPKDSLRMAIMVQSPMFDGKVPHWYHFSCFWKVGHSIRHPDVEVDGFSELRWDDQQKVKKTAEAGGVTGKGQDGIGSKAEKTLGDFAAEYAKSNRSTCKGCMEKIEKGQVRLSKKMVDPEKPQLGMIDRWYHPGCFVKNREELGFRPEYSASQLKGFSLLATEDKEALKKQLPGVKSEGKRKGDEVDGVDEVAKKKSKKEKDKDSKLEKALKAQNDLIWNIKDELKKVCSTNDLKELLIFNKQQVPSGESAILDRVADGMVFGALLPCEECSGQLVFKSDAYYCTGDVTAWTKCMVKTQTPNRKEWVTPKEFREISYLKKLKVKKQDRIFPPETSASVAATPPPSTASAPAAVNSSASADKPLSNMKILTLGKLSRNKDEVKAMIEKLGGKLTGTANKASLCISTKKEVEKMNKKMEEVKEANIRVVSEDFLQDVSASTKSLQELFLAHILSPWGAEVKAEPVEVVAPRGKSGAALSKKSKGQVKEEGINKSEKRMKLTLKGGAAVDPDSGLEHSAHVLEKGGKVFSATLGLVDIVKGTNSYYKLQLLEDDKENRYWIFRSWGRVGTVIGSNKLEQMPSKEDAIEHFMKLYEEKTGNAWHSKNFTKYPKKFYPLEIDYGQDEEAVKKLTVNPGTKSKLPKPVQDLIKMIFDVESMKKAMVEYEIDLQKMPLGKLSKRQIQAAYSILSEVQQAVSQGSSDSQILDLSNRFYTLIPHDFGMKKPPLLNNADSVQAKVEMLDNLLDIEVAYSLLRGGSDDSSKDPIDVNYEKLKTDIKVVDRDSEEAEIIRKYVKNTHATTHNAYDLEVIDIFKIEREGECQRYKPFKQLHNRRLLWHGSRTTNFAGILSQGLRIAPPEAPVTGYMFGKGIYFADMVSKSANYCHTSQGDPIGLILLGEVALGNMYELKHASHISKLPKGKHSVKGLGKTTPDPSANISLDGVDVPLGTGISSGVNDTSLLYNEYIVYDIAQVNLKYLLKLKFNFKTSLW", "experiment": "In vitro Scintillation Proximity Assay (SPA) for PARP-1 inhibitory activity", "assay_type": "biochemical", "conditions": "read-out: in vitro SPA assay PARP-1 pIC50 (converted)", "description": "Compounds of the present invention were tested in an in vitro assay based on SPA technology (proprietary to GE healthcare).\nIn principle, the assay relies upon the well established SPA technology for the detection of poly(ADP-ribosyl)ation of biotinylated target proteins, i.e histones. This ribosylation is induced using nicked DNA activated PARP-1 enzyme and [^3H]-nicotinamide adenine dinucleotide ([^3H]-NAD^+) as ADP-ribosyl donor.\nHistones (type II-A, supplier: Sigma) were biotinylated using the biotinylation kit of Amersham and stored aliquoted at −20° C. A stock solution of 100 mg/ml SPA poly(vinyl toluene) (PVT) beads (supplier: Amersham) was made in PBS. A stock solution of 61.6 nM [^3H]-NAD^+ was made by adding [^3H]-NAD^+ (0.1 mCi/ml, supplier: Perkin Elmer) to incubation buffer (50 mM Tris/HCl, pH 8; 0.2 mM DTT; 4 mM MgCl2). A solution of 4 mM NAD^+ (supplier: Sigma) was made. Human PARP-1 enzyme was obtained from Trevigen. Biotinylated histones and PVT-SPA beads were mixed and pre-incubated for 30 min. at room temperature. PARP-1 enzyme (concentration was lot dependent) was mixed with the nicked DNA and the mixture was pre-incubated for 30 min. at 4° C. Equal parts of this histones/PVT-SPA beads solution and PARP-1 enzyme/DNA solution were mixed and 75 μl of this mixture together with 1 μl of compound in DMSO and 25 μl of [^3H]-NAD^+ was added per well into a 96-well microtiterplate. The final concentrations in the incubation mixture were 2 μg/ml for the biotinylated histones, 2 mg/ml for the PVT-SPA beads, 0.25 μg/ml for the nicked DNA and between 0.1-0.2 μg/ml for the PARP-1 enzyme. After incubation of the mixture for 20 min. at room temperature, the reaction was terminated by adding 100 μl of 4 mM NAD^+ in water (final concentration 2 mM) and plates were mixed. The beads were sedimented by centrifugation (10 min, 800 rpm). and plates transferred to a TopCountNXT™ (Packard) for scintillation counting, values were expressed as counts per minute (cpm). For each experiment, controls (containing PARP-1 enzyme and DMSO without compound), a blank incubation (containing DMSO but no PARP-1 enzyme, no DNA or compound) and samples (containing PARP-1 enzyme, DNA and compound dissolved in DMSO) were run in parallel. All compounds tested were dissolved and eventually further diluted in DMSO. A dose-response curve was made wherein the compounds were tested at concentrations between 10^−5M and 3×10^−9M. In each test, the blank value was subtracted from both the control and the sample values. The control sample represented maximal PARP-1 enzyme activity. For each sample, the amount of cpm was expressed as a percentage of the mean cpm value of the controls. When appropriate, IC50-values (concentration of the drug, needed to reduce the PARP-1 enzyme activity to 50% of the control) were computed using linear interpolation between the experimental points just above and below the 50% level. Herein the effects of test compounds are expressed as pIC50 (the negative log value of the IC50-value). As a reference compound, 4-amino-1,8-naphthalimide was included to validate the SPA assay."}, "[2]": {"target": "T2, TANK-2 enzyme (Homo sapiens, UniProt Q9H2K2)", "T2 construct": "made in house", "T2 sequence (Q9H2K2 1-1166)": "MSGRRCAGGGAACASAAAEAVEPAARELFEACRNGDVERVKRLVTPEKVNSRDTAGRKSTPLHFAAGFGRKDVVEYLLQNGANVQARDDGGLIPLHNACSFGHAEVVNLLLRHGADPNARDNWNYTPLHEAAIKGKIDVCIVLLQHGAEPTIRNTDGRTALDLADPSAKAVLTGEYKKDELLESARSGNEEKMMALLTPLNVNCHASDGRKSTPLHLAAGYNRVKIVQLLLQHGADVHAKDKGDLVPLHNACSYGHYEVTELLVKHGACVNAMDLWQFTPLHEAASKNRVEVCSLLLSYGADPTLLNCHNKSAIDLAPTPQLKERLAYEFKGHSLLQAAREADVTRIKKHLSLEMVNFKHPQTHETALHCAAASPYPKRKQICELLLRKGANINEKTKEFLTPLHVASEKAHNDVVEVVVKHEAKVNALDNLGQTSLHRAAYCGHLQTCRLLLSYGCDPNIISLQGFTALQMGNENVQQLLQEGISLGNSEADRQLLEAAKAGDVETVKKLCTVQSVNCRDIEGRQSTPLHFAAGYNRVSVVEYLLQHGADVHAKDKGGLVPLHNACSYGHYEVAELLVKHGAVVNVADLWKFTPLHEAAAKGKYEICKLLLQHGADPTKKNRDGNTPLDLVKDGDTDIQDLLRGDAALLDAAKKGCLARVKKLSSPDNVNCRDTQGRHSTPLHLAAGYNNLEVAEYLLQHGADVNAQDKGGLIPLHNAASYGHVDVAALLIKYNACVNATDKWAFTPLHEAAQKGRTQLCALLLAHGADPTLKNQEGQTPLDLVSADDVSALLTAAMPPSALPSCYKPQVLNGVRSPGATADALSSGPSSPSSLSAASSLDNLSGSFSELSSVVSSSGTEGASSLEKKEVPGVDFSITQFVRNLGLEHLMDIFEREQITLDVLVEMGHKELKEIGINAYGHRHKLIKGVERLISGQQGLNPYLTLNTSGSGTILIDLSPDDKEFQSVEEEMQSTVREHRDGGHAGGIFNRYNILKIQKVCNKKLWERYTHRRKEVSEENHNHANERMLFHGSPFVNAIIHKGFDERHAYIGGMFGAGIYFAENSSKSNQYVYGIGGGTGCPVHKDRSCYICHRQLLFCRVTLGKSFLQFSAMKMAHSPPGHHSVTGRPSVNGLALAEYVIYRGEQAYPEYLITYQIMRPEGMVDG", "experiment": "In vitro Scintillation Proximity Assay (SPA) for TANK-2 inhibitory activity", "assay_type": "biochemical", "conditions": "in vitro SPA assay TANK-2 pIC50", "description": "Compounds of the present invention were tested in an in vitro assay based on SPA technology with Ni Flash plates (96 or 384 well). In principle, the assay relies upon SPA technology for the detection of auto-poly(ADP-ribosyl)ation of TANK-2 protein using [^3H]-nicotinamide adenine dinucleotide ([^3H]-NAD^+) as ADP-ribosyl donor.\nA stock solution of 100 nM [3H]-NAD^+/NAD (0.1 mCi/ml, supplier: Perkin Elmer) and 0.25 μM NAD (Sigma) was made in assay buffer (60 mM Tris/HCl, pH 7.4; 0.9 mM DTT; 6 mM MgCl2). The TANK-2 enzyme was produced as described in EP1238063. 60 μl of assay buffer, together with 1 μl of compound in DMSO, 20 μl of [^3H]-NAD^+/NAD and 20 μl of TANK-2 enzyme (final concentration 8 μg/ml) was added per well into a 96-well Ni-coated flash plate (Perkin Elmer). After incubation of the mixture for 120 min. at room temperature, the reaction was terminated by adding 60 μl of stopsolution (42.6 mg NAD in 6 ml H2O). The plates were covered with a plate sealer and placed in a TopCountNXT™ (Packard) for scintillation counting. Values were expressed as counts per minute (cpm). For each experiment, controls (containing TANK-2 enzyme and DMSO without compound), a blank incubation (containing DMSO but no TANK-2 enzyme or compound) and samples (containing TANK-2 enzyme and compound dissolved in DMSO) were run in parallel. All compounds tested were dissolved and eventually further diluted in DMSO. In first instance, compounds were tested at a concentration of 10^−5M. […] In each test, the blank value was subtracted from both the control and the sample values. The control sample represented maximal TANK-2 enzyme activity. For each sample, the amount of cpm was expressed as a percentage of the mean cpm value of the controls. When appropriate, IC50-values (concentration of the drug, needed to reduce the TANK-2 enzyme activity to 50% of the control) were computed using linear interpolation between the experimental points just above and below the 50% level. Herein the effects of test compounds are expressed as pIC50 (the negative log value of the IC50-value). As reference compounds, 3-aminobenzamide and 4-amino-1,8-naphtalimide were included to validate the SPA assay. Herein the assay was described using 96-well plates. In the assay using 384-well plates the same final concentrations were used and volumes were adapted."}}, "data": [{"compound": "CCc1cc2ccc(C(C)(C#N)Cc3nc(C#N)cc(OC)n3)cc2[nH]c1=O", "note": "(single isomer, unassigned) [Compound 203]", "values": [{"measurement": "IC50", "setting": "[1]", "value": 0.0501, "unit": "µM"}, {"measurement": "IC50", "setting": "[2]", "value": 0.0794, "unit": "µM"}, {"measurement": "melting point", "value": 179, "unit": "°C"}]}]}
